The text below walks through data of patent US20240368120A1 (Terns Pharmaceuticals, Inc., priority 2023, published 2024).

The term pEC50 denotes the EC50 on a negative log10 scale, so that one unit is a factor of ten. Usually Emax stands for the greatest response seen or fitted, relative to the assay's reference.

This assay has as its target T1, human GLP-1R receptor (Homo sapiens, UniProt P43220).
T1 construct: expressed in transfected cells
In words: GLP-1R low expression cell assay (cAMP TR-FRET, CHO-K1_hGLP-1Rlow_clone10 cells). In kind it is cell-based. The following applies: for pEC50: cAMP TR-FRET, 30 min at 25° C. In a few lines:
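CHO-K1 cells stably expressing low surface human GLP-1R (clone10), 1,000 cells/well, exposed to 10-point 3-fold compound dilutions for 30 min at 25 °C. cAMP measured by TR-FRET (Eu-cAMP tracer/ULight-anti-cAMP, 15 min). EC50 from Hill fit of duplicate percent activation relative to a parallel GLP-1 control agonist.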

[1] abbreviates: maximum activation relative to control GLP-1 peptide agonist.

Structures are written as SMILES. pEC50: −log10 of the molar value.

T1 sequence (P43220 24-463): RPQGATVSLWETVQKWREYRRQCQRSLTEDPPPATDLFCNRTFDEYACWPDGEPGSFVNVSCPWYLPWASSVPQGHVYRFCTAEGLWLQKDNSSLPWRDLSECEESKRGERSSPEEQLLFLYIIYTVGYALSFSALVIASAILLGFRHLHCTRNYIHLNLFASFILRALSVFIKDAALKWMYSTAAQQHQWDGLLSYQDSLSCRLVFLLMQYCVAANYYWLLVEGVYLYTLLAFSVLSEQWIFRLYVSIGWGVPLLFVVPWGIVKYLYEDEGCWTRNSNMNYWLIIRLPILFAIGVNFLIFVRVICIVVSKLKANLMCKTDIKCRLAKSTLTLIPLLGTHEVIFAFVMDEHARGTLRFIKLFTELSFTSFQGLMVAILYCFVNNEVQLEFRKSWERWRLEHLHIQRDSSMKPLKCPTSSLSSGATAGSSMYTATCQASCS

`COc1cc(C(=O)O)cc2c1nc(N(C)[C@H]1CC[C@H](c3cccc(OCc4ccc(Cl)cc4F)n3)CC1)n2C` [Compound 363, 2-(((1r,4r)-4-(6-((4-Chloro-2-fluorobenzyl)oxy)pyridin-2-yl)cyclohexyl)(methyl)amino)-4-methoxy-1-methyl-1H-benzo[d]imidazole-6-carboxylic acid]: the pEC50 was more than 8.00. The compound further registered an Emax under setting [1] of more than 85%.

On to `Cn1c(CN2CCC(c3cccnc3OCc3ccc(Cl)cc3F)CC2)nc2c(OC(F)F)cc(C(=O)O)cc21` [Compound 364, 2-((4-(2-((4-Chloro-2-fluorobenzyl)oxy)pyridin-3-yl)piperidin-1-yl)methyl)-4-(difluoromethoxy)-1-methyl-1H-benzo[d]imidazole-6-carboxylic acid], for which the pEC50 is 7.00 to 8.00. This compound yielded an Emax under setting [1] of more than 85%.

As to `Cn1c(CN2CCC(c3cccc(OCc4ccc(C5CC5)cc4F)n3)CC2)nc2c(OC(F)F)cc(C(=O)O)cc21` [Compound 365, 2-((4-(6-((4-Cyclopropyl-2-fluorobenzyl)oxy)pyridin-2-yl)piperidin-1-yl)methyl)-4-(difluoromethoxy)-1-methyl-1H-benzo[d]imidazole-6-carboxylic acid], the pEC50 was 7.00 to 8.00. Under setting [1], this compound registered an Emax of more than 85%.

Consider `Cn1c(CN2CCC(c3cccc(OCc4cc(F)c(C#N)cc4F)n3)CC2)nc2c(OC(F)F)cc(C(=O)O)cc21` [Compound 366, 2-((4-(6-((4-Cyano-2,5-difluorobenzyl)oxy)pyridin-2-yl)piperidin-1-yl)methyl)-4-(difluoromethoxy)-1-methyl-1H-benzo[d]imidazole-6-carboxylic acid], for which the pEC50 was more than 8.00. The Emax under setting [1] is more than 85%.

Consider `Cn1c(Cc2ccc(Oc3cccc(COc4ccc(Cl)cc4F)n3)cc2F)nc2c(OC(F)F)cc(C(=O)O)cc21` [Compound 367, 2-(4-((6-((4-Chloro-2-fluorophenoxy)methyl)pyridin-2-yl)oxy)-2-fluorobenzyl)-4-(difluoromethoxy)-1-methyl-1H-benzo[d]imidazole-6-carboxylic acid], for which the pEC50 is less than 6.00. Besides, the Emax under setting [1] is more than 85%.

For the compound `Cn1c(CN2CCC(c3cccc4c3O[C@H](c3ccc(Cl)cc3F)CC4)CC2)nc2c(OC(F)F)cc(C(=O)O)cc21` [Compound 368, (S)-2-((4-(2-(4-Chloro-2-fluorophenyl)chroman-8-yl)piperidin-1-yl)methyl)-4-(difluoromethoxy)-1-methyl-1H-benzo[d]imidazole-6-carboxylic acid], the pEC50 is less than 6.00. Further, the Emax under setting [1] was in the range of 25 to 50%.

As to `Cn1c(CN2CCC(c3cccc4c3O[C@@H](c3ccc(Cl)cc3F)CC4)CC2)nc2c(OC(F)F)cc(C(=O)O)cc21` [Compound 369, (R)-2-((4-(2-(4-Chloro-2-fluorophenyl)chroman-8-yl)piperidin-1-yl)methyl)-4-(difluoromethoxy)-1-methyl-1H-benzo[d]imidazole-6-carboxylic acid], the pEC50 is less than 6.00. Under setting [1], this compound returned a maximal response (Emax) of less than 25%.

In turn, `Cn1c(CN2CCC(c3cccc(OCc4ccc(Cl)cc4F)n3)CC2)nc2c(OC(F)F)cc(-c3nsc(=O)[nH]3)cc21` [Compound 370, 3-(2-((4-(6-((4-Chloro-2-fluorobenzyl)oxy)pyridin-2-yl)piperidin-1-yl)methyl)-4-(difluoromethoxy)-1-methyl-1H-benzo[d]imidazol-6-yl)-1,2,4-thiadiazol-5 (4H)-one] showed a pEC50 of 6.00 to 7.00. The compound also gave an Emax under setting [1] of more than 85%.

Compound `Cn1c(N[C@H]2CC[C@H](c3cccc(OCc4ccc(Cl)cc4F)n3)CC2)nc2c(OC(F)F)cc(C(=O)O)cc21` [Compound 371, 2-(((1r,4r)-4-(6-((4-Chloro-2-fluorobenzyl)oxy)pyridin-2-yl)cyclohexyl)amino)-4-(difluoromethoxy)-1-methyl-1H-benzo[d]imidazole-6-carboxylic acid] gave a pEC50 of less than 6.00. Further, the Emax under setting [1] is more than 85%.

On to `[2H]C([2H])([2H])N(c1nc2c(OC(F)F)cc(C(=O)O)cc2n1C)[C@H]1CC[C@H](c2cccc(OCc3ccc(Cl)cc3F)n2)CC1` [Compound 372, 2-(((1r,4r)-4-(6-((4-Chloro-2-fluorobenzyl)oxy)pyridin-2-yl)cyclohexyl)(methyl-d3)amino)-4-(difluoromethoxy)-1-methyl-1H-benzo[d]imidazole-6-carboxylic acid], for which the pEC50 was more than 8.00. The Emax under setting [1] was more than 85%.

In the case of `Cn1c(CN2CCC(c3ccc4c(c3)N(Cc3ccc(Cl)cc3F)CCO4)CC2)nc2c(OC(F)F)cc(C(=O)O)cc21` [Compound 373, 2-((4-(4-(4-Chloro-2-fluorobenzyl)-3,4-dihydro-2H-benzo[b][1,4]oxazin-6-yl)piperidin-1-yl)methyl)-4-(difluoromethoxy)-1-methyl-1H-benzo[d]imidazole-6-carboxylic acid], the pEC50 is less than 6.00. For the same compound, the Emax under setting [1] was less than 25%.

Take `Cn1c(CN2CCC(c3cncc(OCc4ccc(Cl)cc4F)n3)CC2)nc2c(OC(F)F)cc(C(=O)O)cc21` [Compound 374, 2-((4-(6-((4-Chloro-2-fluorobenzyl)oxy)pyrazin-2-yl)piperidin-1-yl)methyl)-4-(difluoromethoxy)-1-methyl-1H-benzo[d]imidazole-6-carboxylic acid]: the pEC50 is 6.00 to 7.00. In addition, the Emax under setting [1] was more than 85%.

Take `Cn1c(CN2CCC(c3nc(OCc4ccc(Cl)cc4F)ncc3F)CC2)nc2c(OC(F)F)cc(C(=O)O)cc21` [Compound 375, 2-((4-(2-((4-Chloro-2-fluorobenzyl)oxy)-5-fluoropyrimidin-4-yl)piperidin-1-yl)methyl)-4-(difluoromethoxy)-1-methyl-1H-benzo[d]imidazole-6-carboxylic acid]: the pEC50 is 6.00 to 7.00. For the same compound, the Emax under setting [1] was more than 85%.

`N#Cc1ccc(COc2cccc(C3CCN(Cc4nc5c(O)c(C(=O)O)ccc5n4C[C@@H]4CCO4)CC3)n2)c(F)c1` [Compound 376, (S)-2-((4-(6-((4-Cyano-2-fluorobenzyl)oxy)pyridin-2-yl)piperidin-1-yl)methyl)-4-hydroxy-1-(oxetan-2-ylmethyl)-1H-benzo[d]imidazole-5-carboxylic acid] showed a pEC50 of more than 8.00. The same compound had an Emax under setting [1] of more than 85%.

Compound `N#Cc1ccc(COc2cccc(C3CCN(Cc4nc5ccc(C(=O)O)c(O)c5n4C[C@@H]4CCO4)CC3)n2)c(F)c1` [Compound 377, (S)-2-((4-(6-((4-Cyano-2-fluorobenzyl)oxy)pyridin-2-yl)piperidin-1-yl)methyl)-7-hydroxy-1-(oxetan-2-ylmethyl)-1H-benzo[d]imidazole-6-carboxylic acid] had a pEC50 of more than 8.00. Besides, under setting [1], the “GLP-1R Low Expression Cell Assay Emax (%)” value was “++++ (Emax is >85%)”.

Turning to `N#Cc1ccc(COc2cccc(C3CCN(Cc4nc5cnc(C(=O)O)cc5n4C[C@@H]4CCO4)CC3)n2)c(F)c1` [Compound 378, (S)-2-((4-(6-((4-Cyano-2-fluorobenzyl)oxy)pyridin-2-yl)piperidin-1-yl)methyl)-1-(oxetan-2-ylmethyl)-1H-imidazo[4,5-c]pyridine-6-carboxylic acid], the pEC50 is 7.00 to 8.00. The Emax under setting [1] is more than 85%.

Turning to `Cn1c(CN2CCC(c3cccc(OCc4ccc(Cl)cc4F)n3)CC2)nc2c(O[C@H]3C[C@@H](F)C3)cc(C(=O)O)cc21` [Compound 379, 2-((4-(6-((4-Chloro-2-fluorobenzyl)oxy)pyridin-2-yl)piperidin-1-yl)methyl)-4-((1s,3s)-3-fluorocyclobutoxy)-1-methyl-1H-benzo[d]imidazole-6-carboxylic acid], the pEC50 is 7.00 to 8.00. This compound also gave an Emax under setting [1] of more than 85%.

On to `COc1nc(C(=O)O)cc2c1nc(CN1CCC(c3cccc(OCc4ccc(Cl)cc4F)n3)CC1)n2C` [Compound 380, 2-((4-(6-((4-Chloro-2-fluorobenzyl)oxy)pyridin-2-yl)piperidin-1-yl)methyl)-4-methoxy-1-methyl-1H-imidazo[4,5-c]pyridine-6-carboxylic acid], for which the pEC50 is 7.00 to 8.00. This compound displayed an Emax under setting [1] of more than 85%.

In the case of `[2H]C([2H])(C)Oc1cc(C(=O)O)cc2c1nc(C([2H])([2H])N1CCC(c3cccc(OC([2H])([2H])c4ccc(Cl)cc4F)n3)CC1)n2C` [Compound 381, 2-((4-(6-((4-Chloro-2-fluorophenyl)methoxy-d2)pyridin-2-yl)piperidin-1-yl)methyl-d2)-4-(ethoxy-1,1-d2)-1-methyl-1H-benzo[d]imidazole-6-carboxylic acid], the pEC50 was more than 8.00. Under setting [1], this compound displayed an Emax of more than 85%.

With `COc1cc(-c2cc(=O)[nH]o2)cc2c1nc(CN1CCC(c3cccc(OCc4ccc(Cl)cc4F)n3)CC1)n2C[C@@H]1CCO1` [Compound 382, (S)-5-(2-((4-(6-((4-Chloro-2-fluorobenzyl)oxy)pyridin-2-yl)piperidin-1-yl)methyl)-4-methoxy-1-(oxetan-2-ylmethyl)-1H-benzo[d]imidazol-6-yl) isoxazol-3 (2H)-one], the pEC50 is more than 8.00. The Emax under setting [1] was in the range of 50 to 85%.

For the compound `COc1cc(C(=O)O)cc2c1nc(CN1CCN(c3cccc(OCc4ccc(Cl)cc4F)n3)CC1)n2C` [Compound 383, 2-((4-(6-((4-Chloro-2-fluorobenzyl)oxy)pyridin-2-yl)piperazin-1-yl)methyl)-4-methoxy-1-methyl-1H-benzo[d]imidazole-6-carboxylic acid], the pEC50 was 7.00 to 8.00. Further, under setting [1], the Emax was more than 85%.

`CCOc1cc(-c2cc(=O)[nH]o2)cc2c1nc(CN1CCC(c3cccc(OCc4ccc(C#N)cc4F)n3)CC1)n2C` [Compound 384, 4-(((6-(1-((4-Ethoxy-1-methyl-6-(3-oxo-2,3-dihydroisoxazol-5-yl)-1H-benzo[d]imidazol-2-yl)methyl)piperidin-4-yl)pyridin-2-yl)oxy)methyl)-3-fluorobenzonitrile] gave a pEC50 of 7.00 to 8.00. The Emax under setting [1] is more than 85%.
